Source: US9540389B2, “Antimicrobial potentiators” (priority 2013, dated 2017)
Converted amounts (≈) assume the structure as drawn. Like-named read-outs stand apart in the source and are kept apart here.

Key:
[1] = H33342 accumulation assay; format: cell-based, Pseudomonas aeruginosa ATCC 27835; conditions: P. aeruginosa; 25 μM
[2] = tested on: Escherichia coli 287 (AB1157, CIPR, overexpresses efflux); experiment: microbe, parasite or virus in culture; format: cell-based; conditions: for MIC: Escherichia coli
Text: (§1) • Strains and Reagents. The following strains were obtained from the Keio collection (Baba, et al.: Construction of Escherichia coli K-12 in-frame, single-gene knockout mutants: the Keio collection. In Mol Syst Biol, vol. 2, pp. 2006 0008, (2006)): JW0451 (ΔacrB::kan), JW5503 (ΔtolC::kan), JW3234 (ΔacrF::kan), JW2661 (ΔemrB::kan), JW0863 (ΔmacB::kan). The deletion mutations in each of these strains were transferred to AB1157 using P1 phage transduction (see Table 1). The construction of the E. coli cell-based reporter strain (SOS-XXX) that was used for high throughput screening is described in detail in the supplementary information. […] Irgasan was a generous gift from Ciba Speciality Chemicals, Inc. (High Point, N.C.). Hoechst 33342 (H33342) was purchased from Molecular Probes (Eugene, Oreg.). […] Luria Broth (Miller) and agar were purchased as prepared dehydrated media from Becton Dickenson (Franklin Lakes, N.J.). The compound libraries used in high-throughput screens were purchased from Chembridge (San Diego, Calif.), ChemDiv (San Diego, Calif.), and TimTec (Newark, Del.). MBX2319 was synthesized by Microbiotix, Inc. • Antibacterial Activity Assays. The minimal inhibitory concentration (MIC) of antibacterial agents and biocides were determined using the microbroth dilution method essentially as described in the CLSI protocol M7-A7 (CLSI: Method for dilution antimicrobial susceptibility testing for bacteria that grow aerobically; Approved standard-document M7-A7. In Clinical and Laboratory Standards Institute document M7-A7, Clinical and Laboratory Standards Institute, Wayne, Pa., (2006)), with the following exceptions. LB media was used instead of MHB. […] The final concentration of DMSO in each assay was 2%. […] MIC assays were performed in triplicate and the geometric mean was calculated. Checkerboard MIC assays using an EPI and an antibacterial agent were performed essentially as described (Pillai, et al.: Antimicrobial Combinations. In Antibiotics in Laboratory Medicine, ed. by V. Lorian, pp. 365-440, Lippincott Williams & Wilkins, Philadelphia, Pa., (2005)), with the same modifications used for the MIC assays described above. • Time-Kill Assays. Killing curve assays were performed essentially as described (Pillai, et al.: Antimicrobial Combinations. In Antibiotics in Laboratory Medicine, ed. by V. Lorian, pp. 365-440, Lippincott Williams & Wilkins, Philadelphia, Pa., (2005)). Exponential bacterial cultures grown in LB were diluted to a cell density of ˜1×10^7 in LB followed by addition of CIP and/or an EPI. Viability was monitored over 2-4 hours by making serial dilutions in saline and spotting 5 μl of each dilution onto the surface of an LB agar plate in triplicate. Colonies were counted after the plates were incubated at 37° C. for 16-18 hr, colony forming units (CFU) per ml were calculated, and the average and standard deviation for the three replicates was determined. For treatments that decreased CFU/ml below the limit of detection for the spot plating method, the 100 μl samples were diluted into 5 ml LB top agar, were poured onto LB agar plates, and incubated for 18 hr at 37° C. To calculate the fraction of the control for each sample, the average CFU/ml values for treated samples were divided by those from the same sample at 0 h (time=0). Each experiment was repeated at least three times, and a representative experiment is shown. • H33342 Accumulation Assay. The rate of accumulation of the fluorescent dye Hoechst 33342 (H33342), which is a substrate of a wide variety of bacterial efflux pumps (van den Berg van Saparoea, et al., Biochemistry, vol. 44, pp. 16931-16938, (2005)), can be used to estimate the activity of the major efflux pumps in E. coli and many other bacterial species. The H33342 accumulation assay was used to evaluate the effect of EPIs on the activity of the AcrAB-TolC efflux pump in several bacterial species essentially as described (Coldham, et al., J Antimicrob Chemother, vol. 65, pp. 1655-1663, (2010)). […]

[3] = tested on: Escherichia coli 285 (AB1157, CIPR, overexpresses efflux); experiment: microbe, parasite or virus in culture; format: cell-based; conditions: for MIC: Escherichia coli
Text: as §1

[4] = tested on: Escherichia coli AB1157 ΔtolC; experiment: Checkerboard MIC assay (antibacterial agent + MBX2319); format: cell-based; conditions: for MIC: Escherichia coli
Text: as §1

[5] = tested on: Escherichia coli AB1157 ΔacrF; experiment: as above; format: cell-based; conditions: for MIC: Escherichia coli
Text: as §1

[6] = tested on: Escherichia coli AB1157 ΔacrB; experiment: as above; format: cell-based; conditions: for MIC: Escherichia coli
Text: as §1

[7] = tested on: Escherichia coli AB1157 (WT); experiment: as above; format: cell-based; conditions: for MIC: Escherichia coli
Text: as §1

[8] = tested on: Escherichia coli AB1157 ΔacrB; experiment: MIC assay (microbroth dilution); format: cell-based
Text: as §1

[9] = tested on: Escherichia coli AB1157; experiment: microbe, parasite or virus in culture
[10] = read-out: MIC (μg/ml) with MBX2319 at concn (μM) of: 0

CC1(C)Cc2c(C#N)c(SCCc3ccccc3)nc(N3CCOCC3)c2CO1 [MBX2319]
H33342 accumulation [1]: weak activity
potentiation of the antibacterial activity of CIP, LEV, and PIP ([2]; E. coli strain 287): 4-8 fold
MIC ([2]; read-out: MIC (μM) MBX2319): ≥ 100 µM
potentiation of the antibacterial activity of CIP, LEV, and PIP ([3]; E. coli strain 285): 4-8 fold
MIC ([3]; read-out: MIC (μM) MBX2319): ≥ 100 µM
MIC ([4]; read-out: MIC (μM) MBX2319): ≥ 100 µM
MIC ([5]; read-out: MIC (μM) MBX2319): ≥ 100 µM
MIC ([6]; read-out: MIC (μM) MBX2319): ≥ 100 µM
MIC ([7]; MBX2319 alone, strain WT, read-out: MIC (μM) MBX2319): ≥ 100 µM
decrease of the MIC of CIP by MBX2319 ([7]; checkerboard, E. coli AB1157, ciprofloxacin): 2 fold
decrease of the MIC of LEV by MBX2319 ([7]; checkerboard, E. coli AB1157, levofloxacin): 4 fold
decrease of the MIC of PIP by MBX2319 ([7]; checkerboard, E. coli AB1157, piperacillin): 8 fold

CCN1CCN(C(=O)N[C@@H](C(=O)N[C@@H]2C(=O)N3[C@@H]2SC(C)(C)[C@@H]3C(=O)O)c2ccccc2)C(=O)C1=O [Piperacillin, piperacillin]
MIC (μg/ml) with MBX2319 at concn (μM) of: 1.56 ([2]; 287, MBX2319 1.56 μM): 8 µg/mL
MIC (μg/ml) with MBX2319 at concn (μM) of: 3.13 ([2]; 287, MBX2319 3.13 μM): 4 µg/mL
MIC (μg/ml) with MBX2319 at concn (μM) of: 6.25 ([2]; 287, MBX2319 6.25 μM): 4 µg/mL
MIC (μg/ml) with MBX2319 at concn (μM) of: 25 ([2]; 287, MBX2319 25 μM): 2 µg/mL
MIC (μg/ml) with MBX2319 at concn (μM) of: 50 ([2]; 287, MBX2319 50 μM): 2 µg/mL
MIC (μg/ml) with MBX2319 at concn (μM) of: 12.5 ([2]; 287, MBX2319 […]): 2 µg/mL
MIC ratios mutant ([2]; 287, MIC (WT)/MIC (mutant) in the absence of EPI): 0.25
MIC ratios 2319 ([2]; 287, highest ratio of MIC (no compound)/MIC (MBX2319)): 8
MIC [2, 10]: 16 µg/mL
MIC (μg/ml) with MBX2319 at concn (μM) of: 1.56 ([3]; 285, MBX2319 1.56 μM): 4 µg/mL
MIC (μg/ml) with MBX2319 at concn (μM) of: 3.13 ([3]; 285, MBX2319 3.13 μM): 2 µg/mL
MIC (μg/ml) with MBX2319 at concn (μM) of: 6.25 ([3]; 285, MBX2319 6.25 μM): 2 µg/mL
MIC (μg/ml) with MBX2319 at concn (μM) of: 25 ([3]; 285, MBX2319 25 μM): 2 µg/mL
MIC (μg/ml) with MBX2319 at concn (μM) of: 50 ([3]; 285, MBX2319 50 μM): 2 µg/mL
MIC (μg/ml) with MBX2319 at concn (μM) of: 12.5 ([3]; 285, MBX2319 […]): 2 µg/mL
MIC ratios mutant ([3]; 285, MIC (WT)/MIC (mutant) in the absence of EPI): 0.5
MIC ratios 2319 ([3]; 285, highest ratio of MIC (no compound)/MIC (MBX2319)): 4
MIC [3, 10]: 8 µg/mL
MIC ([8]; Escherichia coli, read-out: MICs (μg/ml) ΔacrB None): 0.25 µg/mL
MIC Ratio ΔacrB ([8]; MIC WT/MIC ΔacrB): 16
MIC [9]: 4 µg/mL (≈ 7.73 µM)
MIC [4, 10]: 0.125 µg/mL
MIC (μg/ml) with MBX2319 at concn (μM) of: 1.56 ([4]; ΔtolC, MBX2319 1.56 μM): 0.125 µg/mL
MIC (μg/ml) with MBX2319 at concn (μM) of: 3.13 ([4]; ΔtolC, MBX2319 3.13 μM): 0.125 µg/mL
MIC (μg/ml) with MBX2319 at concn (μM) of: 6.25 ([4]; ΔtolC, MBX2319 6.25 μM): 0.125 µg/mL
MIC (μg/ml) with MBX2319 at concn (μM) of: 25 ([4]; ΔtolC, MBX2319 25 μM): 0.125 µg/mL
MIC (μg/ml) with MBX2319 at concn (μM) of: 50 ([4]; ΔtolC, MBX2319 50 μM): 0.125 µg/mL
MIC (μg/ml) with MBX2319 at concn (μM) of: 12.5 ([4]; ΔtolC, MBX2319 […]): 0.125 µg/mL
MIC ratios mutant ([4]; ΔtolC, MIC (WT)/MIC (mutant) in the absence of EPI): 32
MIC ratios 2319 ([4]; ΔtolC, highest ratio of MIC (no compound)/MIC (MBX2319)): 1
MIC [5, 10]: 4 µg/mL
MIC (μg/ml) with MBX2319 at concn (μM) of: 1.56 ([5]; ΔacrF, MBX2319 1.56 μM): 2 µg/mL
MIC (μg/ml) with MBX2319 at concn (μM) of: 3.13 ([5]; ΔacrF, MBX2319 3.13 μM): 1 µg/mL
MIC (μg/ml) with MBX2319 at concn (μM) of: 6.25 ([5]; ΔacrF, MBX2319 6.25 μM): 0.5 µg/mL
MIC (μg/ml) with MBX2319 at concn (μM) of: 25 ([5]; ΔacrF, MBX2319 25 μM): 0.5 µg/mL
MIC (μg/ml) with MBX2319 at concn (μM) of: 50 ([5]; ΔacrF, MBX2319 50 μM): 0.5 µg/mL
MIC (μg/ml) with MBX2319 at concn (μM) of: 12.5 ([5]; ΔacrF, MBX2319 […]): 0.5 µg/mL
MIC ratios mutant ([5]; ΔacrF, MIC (WT)/MIC (mutant) in the absence of EPI): 1
MIC ratios 2319 ([5]; ΔacrF, highest ratio of MIC (no compound)/MIC (MBX2319)): 8
MIC [6, 10]: 0.25 µg/mL
MIC (μg/ml) with MBX2319 at concn (μM) of: 1.56 ([6]; ΔacrB, MBX2319 1.56 μM): 0.125 µg/mL
MIC (μg/ml) with MBX2319 at concn (μM) of: 3.13 ([6]; ΔacrB, MBX2319 3.13 μM): 0.125 µg/mL
MIC (μg/ml) with MBX2319 at concn (μM) of: 6.25 ([6]; ΔacrB, MBX2319 6.25 μM): 0.125 µg/mL
MIC (μg/ml) with MBX2319 at concn (μM) of: 25 ([6]; ΔacrB, MBX2319 25 μM): 0.125 µg/mL
MIC (μg/ml) with MBX2319 at concn (μM) of: 50 ([6]; ΔacrB, MBX2319 50 μM): 0.125 µg/mL
MIC (μg/ml) with MBX2319 at concn (μM) of: 12.5 ([6]; ΔacrB, MBX2319 […]): 0.125 µg/mL
MIC ratios mutant ([6]; ΔacrB, MIC (WT)/MIC (mutant) in the absence of EPI): 16
MIC ratios 2319 ([6]; ΔacrB, highest ratio of MIC (no compound)/MIC (MBX2319)): 2
MIC ([7]; WT, MBX2319 0 μM, read-out: MIC (μg/ml) with MBX2319 at concn (μM) of: 0): 4 µg/mL
MIC (μg/ml) with MBX2319 at concn (μM) of: 1.56 ([7]; WT, MBX2319 1.56 μM): 2 µg/mL
MIC (μg/ml) with MBX2319 at concn (μM) of: 3.13 ([7]; WT, MBX2319 3.13 μM): 1 µg/mL
MIC (μg/ml) with MBX2319 at concn (μM) of: 6.25 ([7]; WT, MBX2319 6.25 μM): 1 µg/mL
MIC (μg/ml) with MBX2319 at concn (μM) of: 25 ([7]; WT, MBX2319 25 μM): 0.5 µg/mL
MIC (μg/ml) with MBX2319 at concn (μM) of: 50 ([7]; WT, MBX2319 50 μM): 0.5 µg/mL
MIC (μg/ml) with MBX2319 at concn (μM) of: 12.5 ([7]; WT, MBX2319 […]): 0.5 µg/mL
MIC ratios mutant ([7]; WT, MIC (WT)/MIC (mutant) in the absence of EPI): 1
MIC ratios 2319 ([7]; WT, highest ratio of MIC (no compound)/MIC (MBX2319)): 8
